This assay addresses PD-1/PD-L1 (Homo sapiens, UniProt Q9NZQ7). In words: TR-FRET PD-1/PD-L1 binding inhibition at the molecular level (free proteins). The settings on record: Tag1-PD-L1 and Tag2-PD-1 proteins, twelve concentrations from 200 nM, 2 hours at room temperature, read-out: FRET assay (IC50). The procedure:
In order to evaluate the inhibitory activity of the compounds synthesized according to the above Preparation Examples against PD-1/PD-L1 molecules in a free protein state,a TR-FRET (Time-Resolved Fluorescence Energy Transfer) experimetn was performed as described below.
Specifically, the compounds were prepared in a 96-well plate by serial dilution starting from 200 nM with 1/2 dilutions to obtain a total of twelve concentrations, and 2 µL of each compound solution was added to a 384-well plate. Thereafter, Tag1-PD-L1 protein and Tag2-PD-1 protein were each prepared at a 1x concentration, mixed at a ratio of 1:1, and 8 µL of the mixed solution was added to each well of the 384-well plate containing the compounds. Anti-Tag1 Eu Cryptate reagent and Anti-Tag2 XL665 antibody were each prepared at a 1* concentration, mixed at a ratio of 1:1, and 10 µL of the mixed solution was added to each well of the 384-well plate containing the compounds and proteins, followed by incubation at room temperature for 2 hours. Upon completion of the reaction, fluorescence signals at wavelengths of 620 nm and 665 nm were measured using a microplate reader.

Molecules are shown by their SMILES. pIC50: −log10 of the molar value. Bounds are passed on as bounds.

The pIC50 is the negative decadic logarithm of the IC50, by convention in mol/L.

Chain of PD-1/PD-L1 (Q9NZQ7 19-238 limits assumed): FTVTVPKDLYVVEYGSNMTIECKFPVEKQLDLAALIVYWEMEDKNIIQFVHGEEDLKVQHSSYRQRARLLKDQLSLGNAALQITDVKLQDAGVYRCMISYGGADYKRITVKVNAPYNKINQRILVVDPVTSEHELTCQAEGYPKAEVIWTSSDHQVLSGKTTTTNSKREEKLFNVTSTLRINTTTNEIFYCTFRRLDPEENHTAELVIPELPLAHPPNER

Consider `O=C(O)CNC1CCCn2nc(C(=O)Nc3cccc(-c4cccc(NC(=O)c5cc6n(n5)CCCC6NCC(=O)O)c4Cl)c3Cl)cc21` (stereo not drawn) [Compound 8, 2-[[2-[[3-[3-[[4-(carboxymethylamino)-4,5,6,7-tetrahydropyrazolo[1,5-a]pyridine-2-carbonyl]amino]-2-chlorophenyl]-2-chlorophenyl]carbamoyl]-4,5,6,7-tetrahydropyrazolo[1,5-a]pyridin-4-yl]amino]acetic acid], for which the pIC50 was more than 8.00.
Consider `Cc1c(NC(=O)c2cc3n(n2)CCCC3O)cccc1-c1cccc(Nc2nccc3cc(CN4CC[C@@H](O)C4)cnc23)c1C` (stereo partly drawn) [Compound 11, 4-hydroxy-N-(3'-((3-(((R)-3-hydroxypyrrolidin-1-yl)methyl)-1,7-naphthyridin-8-yl)amino)-2,2'-dimethyl-[1,1'-biphenyl]-3-yl)-4,5,6,7-tetrahydropyrazolo[1,5-a]pyridine-2-carboxamide], for which the pIC50 is more than 8.00.
Take `CC(=O)NCCNC1CCCn2nc(C(=O)Nc3cccc(-c4cccc(Nc5nccc6cc(CN7CC[C@@H](O)C7)cnc56)c4C)c3C)cc21` (stereo partly drawn) [Compound 12, 4-((2-acetamidoethyl)amino)-N-(3'-((3-(((R)-3-hydroxypyrrolidin-1-yl)methyl)-1,7-naphthyridin-8-yl)amino)-2,2'-dimethyl-[1,1'-biphenyl]-3-yl)-4,5,6,7-tetrahydropyrazolo[1,5-a]pyridine-2-carboxamide]: the pIC50 was more than 8.00.
In the case of `Cc1c(NC(=O)c2cc3n(n2)CCCC3N2CC[C@@H](O)C2)cccc1-c1cccc(Nc2nccc3cc(CN4CC[C@@H](O)C4)cnc23)c1C` (stereo partly drawn) [Compound 13, 4-((R)-3-hydroxypyrrolidin-1-yl)-N-(3'-((3-(((R)-3-hydroxypyrrolidin-1-yl)methyl)-1,7-naphthyridin-8-yl)amino)-2,2'-dimethyl-[1,1'-biphenyl]-3-yl)-4,5,6,7-tetrahydropyrazolo[1,5-a]pyridine-2-carboxamide] it was more than 8.00.
In the case of `Cc1c(NC(=O)c2cc3n(n2)CCCC3NCCO)cccc1-c1cccc(Nc2nccc3cc(CN4CC[C@@H](O)C4)cnc23)c1C` (stereo partly drawn) [Compound 14, 4-((2-hydroxyethyl)amino)-N-(3'-((3-(((R)-3-hydroxypyrrolidin-1-yl)methyl)-1,7-naphthyridin-8-yl)amino)-2,2'-dimethyl-[1,1'-biphenyl]-3-yl)-4,5,6,7-tetrahydropyrazolo[1,5-a]pyridine-2-carboxamide] it was more than 8.00.
In the case of `Cc1c(NC(=O)c2cc3n(n2)CCCC3NC[C@@H]2CCC(=O)N2)cccc1-c1cccc(Nc2nccc3cc(CN4CC[C@@H](O)C4)cnc23)c1C` (stereo partly drawn) [Compound 15, N-(3'-((3-(((R)-3-hydroxypyrrolidin-1-yl)methyl)-1,7-naphthyridin-8-yl)amino)-2,2'-dimethyl-[1,1'-biphenyl]-3-yl)-4-((((S)-5-oxopyrrolidin-2-yl)methyl)amino)-4,5,6,7-tetrahydropyrazolo[1,5-a]pyridine-2-carboxamide] it was more than 8.00; in that of `Cc1c(NC(=O)c2cc3n(n2)CCCC3NCC(=O)O)cccc1-c1cccc(Nc2nccc3cc(CN4CC[C@@H](O)C4)cnc23)c1C` (stereo partly drawn) [Compound 16, 2-((2-((3'-((3-(((R)-3-hydroxypyrrolidin-1-yl)methyl)-1,7-naphthyridin-8-yl)amino)-2,2'-dimethyl-[1,1'-biphenyl]-3-yl)carbamoyl)-4,5,6,7-tetrahydropyrazolo[1,5-a]pyridin-4-yl)amino)acetic acid], more than 8.00; in that of `Cc1c(NC(=O)c2cc3c(NC(C)(C)C(=O)O)cccn3n2)cccc1-c1cccc(Nc2nccc3cc(CN4CC[C@@H](O)C4)cnc23)c1C` [Compound 17, (R)-2-((2-((3'-((3-((3-hydroxypyrrolidin-1-yl)methyl)-1,7-naphthyridin-8-yl)amino)-2,2'-dimethyl-[1,1'-biphenyl]-3-yl)carbamoyl)pyrazolo[1,5-a]pyridin-4-yl)amino)-2-methylpropanoic acid], more than 8.00.
Regarding `O=C(Nc1cccc(-c2cccc(Nc3nccc4cc(CN5CC[C@@H](O)C5)cnc34)c2Cl)c1Cl)c1cc2n(n1)CCCC2O` (stereo partly drawn) [Compound 18, N-(2,2'-dichloro-3'-((3-(((R)-3-hydroxypyrrolidin-1-yl)methyl)-1,7-naphthyridin-8-yl)amino)-[1,1'-biphenyl]-3-yl)-4-hydroxy-4,5,6,7-tetrahydropyrazolo[1,5-a]pyridine-2-carboxamide], the pIC50 is 7.00 to 8.00.
In the case of `CC(=O)NCCNC1CCCn2nc(C(=O)Nc3cccc(-c4cccc(Nc5nccc6cc(CN7CC[C@@H](O)C7)cnc56)c4Cl)c3Cl)cc21` (stereo partly drawn) [Compound 19, 4-((2-acetamidoethyl)amino)-N-(2,2'-dichloro-3'-((3-(((R)-3-hydroxypyrrolidin-1-yl)methyl)-1,7-naphthyridin-8-yl)amino)-[1,1'-biphenyl]-3-yl)-4,5,6,7-tetrahydropyrazolo[1,5-a]pyridine-2-carboxamide] it was 7.00 to 8.00; in that of `O=C(Nc1cccc(-c2cccc(Nc3nccc4cc(CN5CC[C@@H](O)C5)cnc34)c2Cl)c1Cl)c1cc2n(n1)CCCC2NCCO` (stereo partly drawn) [Compound 20, N-(2,2'-dichloro-3'-((3-(((R)-3-hydroxypyrrolidin-1-yl)methyl)-1,7-naphthyridin-8-yl)amino)-[1,1'-biphenyl]-3-yl)-4-((2-hydroxyethyl)amino)-4,5,6,7-tetrahydropyrazolo[1,5-a]pyridine-2-carboxamide], 7.00 to 8.00; in that of `O=C1CC[C@@H](CNC2CCCn3nc(C(=O)Nc4cccc(-c5cccc(Nc6nccc7cc(CN8CC[C@@H](O)C8)cnc67)c5Cl)c4Cl)cc32)N1` (stereo partly drawn) [Compound 21, N-(2,2'-dichloro-3'-((3-(((R)-3-hydroxypyrrolidin-1-yl)methyl)-1,7-naphthyridin-8-yl)amino)-[1,1'-biphenyl]-3-yl)-4-((((S)-5-oxopyrrolidin-2-yl)methyl)amino)-4,5,6,7-tetrahydropyrazolo[1,5-a]pyridine-2-carboxamide], 7.00 to 8.00.
In the case of `O=C(Nc1cccc(-c2cccc(Nc3nccc4cc(CN5CC[C@@H](O)C5)cnc34)c2Cl)c1Cl)c1cc2n(n1)CCCC2N1CC[C@@H](C(=O)O)C1` (stereo partly drawn) [Compound 22, (3R)-1-(2-((2,2'-dichloro-3'-((3-(((R)-3-hydroxypyrrolidin-1-yl)methyl)-1,7-naphthyridin-8-yl)amino)-[1,1'-biphenyl]-3-yl)carbamoyl)-4,5,6,7-tetrahydropyrazolo[1,5-a]pyridin-4-yl)pyrrolidine-3-carboxylic acid] it was more than 8.00; in that of `O=C(Nc1cccc(-c2cccc(Nc3nccc4cc(CN5CC[C@@H](O)C5)cnc34)c2Cl)c1Cl)c1cc2n(n1)CCCC2N1CCC(O)CC1` (stereo partly drawn) [Compound 23, N-(2,2'-dichloro-3'-((3-(((R)-3-hydroxypyrrolidin-1-yl)methyl)-1,7-naphthyridin-8-yl)amino)-[1,1'-biphenyl]-3-yl)-4-(4-hydroxypiperidin-1-yl)-4,5,6,7-tetrahydropyrazolo[1,5-a]pyridine-2-carboxamide], 7.00 to 8.00; in that of `O=C(Nc1cccc(-c2cccc(Nc3nccc4cc(CN5CC[C@@H](O)C5)cnc34)c2Cl)c1Cl)c1cc2n(n1)CCCC2N1CCC(C(=O)O)CC1` (stereo partly drawn) [Compound 24, 1-(2-((2,2'-dichloro-3'-((3-(((R)-3-hydroxypyrrolidin-1-yl)methyl)-1,7-naphthyridin-8-yl)amino)-[1,1'-biphenyl]-3-yl)carbamoyl)-4,5,6,7-tetrahydropyrazolo[1,5-a]pyridin-4-yl)piperidine-4-carboxylic acid], 7.00 to 8.00.

For the origin of these results see patent publication EP4755888A1 (ILAb Co., Ltd., priority 2023, dated 2025).
